Source: patent US4727072A, “3-alkoxy-2-aminopropylamines compositions and use as cardiovascular agents” (McNeilab, Inc., priority 1986, dated 1988)
Structures can show the parent of a compound that is named as a salt.

How the values were obtained:
[1] = test system: spontaneously hypertensive rats; experiment: Spontaneously Hypertensive Rat (SHR) test, arterial pressure; assay type: in vivo, adult spontaneously hypertensive rats (Charles Rivers); details: SH rats, fall of mean arterial pressure
Experimental: The activity of compounds of formula (I) for the treatment of hypertension was determined using the Spontaneously Hypertensive Rat (SHR) test as described below. In this test, the arterial pressure of adult spontaneously hypertensive rats (Charles Rivers) is monitored directly via an aortic cannula. The SH rats are anesthetized with an inhalation anesthetic (ether). The left carotid artery is isolated and cannulated. The tip of the cannula is advanced to the aorta and the cannula is exteriorized behind the neck at the level of the scapula. Animals are placed in individual cages and allowed to recover from the anesthetic and are kept unrestrained. The arterial cannula is connected to the pressure transducer which is attached to the recorder. The test compounds are administered to at least 3 rats at doses selected in the range of 0.1 to 100 mg/kg of body weight by intraperitoneal (i.p.) or oral (p.o.) routes of administration. The arterial pressure and heart rate are monitored for a minimum of 24 hr. A test compound is considered to be active as an antihypertensive agent if the mean arterial pressure (MAP) indicates a fall of >15 mm of Hg. Each animal serves as its own control.

[2] = test system: coronary arteries (Langendorff's isolated heart); experiment: Langendorff's isolated heart preparation (dilation of coronary arteries)
Experimental: In addition to their utility in the treatment of hypertension, the compounds of formula (I) are useful in the treatment of the symptoms of angina pectoris by virtue of their ability to dilate coronary arteries. Their activity was measured using the "Langendorff's isolated heart" preparation. This test has been described in "Pharmacological Experiments on Isolated Preparations". Staff of the Department of Pharmacology, University of Edinbourgh, 2nd Ed., Churchill Livingstone, N.Y., 1970, pp. 112-119. The test compounds were administered at concentrations of 30.0, 10.0, 3.0, 1.0, 0.3, 0.1, 0.03, and 0.01 micromolar (10^-6 molar).

[3] = test system: Mongrel dogs; experiment: Myocardial Oxygen Supply and Demand (dog) Test; assay type: in vivo; details: i.v., anesthetized dog; for increasing coronary blood flow: p<0.05
Experimental: The activity of compounds of formula (I) in the treatment of angina was also determined using the Myocardial Oxygen Supply and Demand (dog) Test as described below.
Mongrel dogs of either sex weighing between 8.4 and 12.3 kg were used for this study. These dogs were obtained from Haycock Farm, Quakertown, PA. They were anesthetized with pentabarbitol Na and ventilated with a Harvard positive pressure respirator (Model 607 , Dover, MA) to maintain their blood pH and gaseous tension within physiological ranges. Heparin-filled polyethylene catheters were implanted into the right femoral artery (PE-260) and the right atrium (PE-180) for the measurement of their respective pressures. The right femoral vein was cannulated with a heparin-filled polyethylene catheter (PE-200) for drug infusion. A thoracotomy was then performed via the left fifth intercostal space. The left circumflex coronary artery was isolated from surrounding fascia and an electromagnetic flow transducer (I.D.=2.0 mm, Gould Statham Inc. Oxnard, CA) placed around it for the measurement of coronary blood flow. A Delmed intravenous catheter (18.5 ga.×8 in., Canton, MA) was inserted into the coronary sinus via a puncture wound made by an 18 ga. needle for coronary venous effluent blood sampling. Arterial oxygen samples were taken from the femoral arterial catheters. Total content of oxygen in whole blood was measured by the Lex-02-Con-TL (Lexington Instruments Corp., Waltham, MA). Myocardial oxygen consumption was estimated by the product of the difference in arterial and coronary sinus oxygen content and coronary blood flow through the left circumflex coronary artery. These techniques have been used extensively to study the effects of calcium channel blockers on myocardial oxygen supply and demand in various animal models. References for these techniques include Jolly, S. R. and Gross, G. J. Effect of FR 7534, A New Calcium Antagonist, On Myocardial Oxygen Demand. Euro. J. Pharm. 54: 289-293, (1979); Ono, H., Ohara, N. and Hashimoto, K. Effect of an Anti-Anginal Drug, Perhexiline, on Myocardial Oxygen Consumption in Anesthetized Open-Chest Dogs Compared With Verapamil and Glyceryl Trinitrate. Jap. Cir. J. 46: 559-567 (1982); and Vater, W. and Schlossman, K. Effects of Nifedipine on the Hemodynamics and Oxygen Consumption of the Heart in Animal Experiments, in: Jatene and Lichtlen, 3rd International Adalat Symposium: New Therapy of Ischemic Heart Disease (Exerpta Medica, Amsterdam, Oxford), p. 33, (1975). Arterial blood pH and gaseous tension were measured by a Corning pH/blood gas analyzer (Model 168, Medfield, MA). Arterial and atrial pressures were measured by connecting their respective catheters to Statham strain-gauge manometers (P23D, Gould Inc., Oxnard, CA). Gould-Statham electromagnetic blood flowmeters (Model SP2202, Oxnard, CA) were used to measure coronary blood flow. Lead II of the EKG was monitored continuously through subcutaneous insertion of stainless steel needle electrodes on the body surface of the animal. The EKG was recorded by a Grass oscillograph (Model 7D, Quincy, MA) with an EKG-pulse pre-amplifier (Model 7P6C) and a Polygraph D.C. driver amplifier (Model 7DAG). All the other recorded variables, i.e., arterial pressure, right atrial pressure and coronary blood flow were recorded by the Grass oscillograph. Coronary vascular resistance was calculated as the quotient of the difference in mean pressure (arterial-right atrial) and left circumflex blood flow. […]

Molecule	SHR δMAP ([1]; dose 30 (mg/kg), po)	EC30 [2] [nM]	SHR δMAP ([1]; dose 10 (mg/kg), ip)	further results
N-(2,6-Dichlorophenyl)-N-(phenylmethyl)-alpha-[[(tricyclo-[3.3.1.1^3,7]dec-1-yl)methoxy]methyl]-1-pyrrolidineethanamine Hydrochloride (1:1) [Example 11c]	-41 mm of Hg	–	–	Langendorff EC30 [2]: .010 10^-6 M
COc1ccc(CN(CC(COCC(C)(C)C)N2CCCC2)c2c(Cl)cccc2Cl)cc1OC.Cl (stereo not drawn) [Example 5, N-(2,6-Dichlorophenyl)-N-[(3,4-dimethoxyphenyl)methyl]-beta-[(2,2-dimethylpropoxy)methyl]-1-pyrrolidineethanamine-Hydrochloride (1:1)]	-15 mm of Hg	1	–	–
CC(C)(C)COCC(CN(Cc1ccncc1)c1c(Cl)cccc1Cl)N1CCCC1.Cl.Cl (stereo not drawn) [Example 7, N-(2,6-Dichlorophenyl)-beta-[(2,2-dimethylpropoxy)methyl]-N-(4-pyridinylmethyl)-1-pyrrolidineethanamine Dihydrochloride]	-37 mm of Hg	28	–	–
CN(C)c1ccc(CN(CC(COCC(C)(C)C)N2CCCC2)c2c(Cl)cccc2Cl)cc1 (stereo not drawn) [Example 4c, N-(2,6-Dichlorophenyl)-N-[[4-(dimethylamino)phenyl]methyl]beta-[(2,2-dimethylpropoxy)methyl]-1-pyrrolidineethanamine Hydrochloride Hydrate (7:7:1)]	-14 mm of Hg	1.6	-23 mm of Hg	–
CC(C)(C)COCC(CN(CC1CCCCC1)c1c(Cl)cccc1Cl)N1CCCC1 (stereo not drawn) [Example 12, N-(Cyclohexylmethyl)-N-(2,6-dichlorophenyl)-beta-[(2,2-dimethylpropoxy)methyl]-1-pyrrolidineethanamine (E)-2-Butenedioate Hydrate (20:25:2)]	-25 mm of Hg	3	–	–
CC(C)(C)COCC(CN(Cc1ccccc1)c1ccccc1Cl)N1CCCC1.Cl (stereo not drawn) [Example 3b, N-(2-Chlorophenyl)-beta-[(2,2-dimethylpropoxy)methyl]-N-(phenylmethyl)-1-pyrrolidineethanamine Hydrochloride (1:1)]	-6 mm of Hg	27	-52 mm of Hg	–
CC(C)(C)COCC(CN(Cc1ccccc1)c1cccc(C(F)(F)F)c1)N1CCCC1.Cl (stereo not drawn) [Example 9b, beta-[(2,2-Dimethylpropoxy)methyl]-N-(phenylmethyl)-N-[3-(trifluoromethyl)phenyl]-1-pyrrolidineethanamine Hydrochloride]	-28 mm of Hg	20	–	–
COc1cccc(N(Cc2ccccc2)CC(COCC(C)(C)C)N2CCCC2)c1.O=C(O)/C=C/C(=O)O (stereo not drawn) [Example 2d, beta-[(2,2-Dimethylpropoxy)methyl]-N-(3-methoxyphenyl)-N-(phenylmethyl)-1-pyrrolidineethanamine (E)-2-Butenedioate (1:1)]	-29 mm of Hg	29	–	–
CC(C)(C)COCC(CN(Cc1ccccc1)c1ccccc1)N1CCCC1 (stereo not drawn) [Example 10, β-[(2,2-Dimethylpropoxy)methyl]-N-phenyl-N-(phenylmethyl)-1-pyrrolidineethanamine (E)-2-Butenedioate (1:1)]	-13 mm of Hg	5	-28 mm of Hg	–
CC1(COCC(CN(Cc2ccccc2)c2c(Cl)cccc2Cl)N2CCCC2)CCCCC1.Cl (stereo not drawn) [Example 1e, N-(2,6-Dichlorophenyl)-beta-[[(1-methylcyclohexyl)methoxy]methyl]-N-(phenylmethyl)-1-pyrrolidineethanamine hydrochloride(1:1)]	-60 mm of Hg	4.6	–	decreased arterial pressure ([3]; 0.25 mg/kg): 8%; increasing coronary blood flow ([3]; 0.25 mg/kg): 80%; decreased arterial pressure ([3]; 0.50 mg/kg): 15%; increasing coronary blood flow ([3]; 0.50 mg/kg): 221%; myocardial oxygen supply/demand ratio ([3]; 0.25 and 0.50 mg/kg): markedly increased
CC(C)(C)OCC(CN(Cc1ccccc1)c1c(Cl)cccc1Cl)N1CCCC1 (stereo not drawn) [Example 13, N-(2,6-Dichlorophenyl)-beta[ (1,1-dimethylethoxy)methyl]-N-(phenylmethyl)-1-pyrrolidineethanamine Hydrochloride (1:1)]	-20 mm of Hg	4.3	-74 mm of Hg	–
CC(C)(C)COCC(CN(Cc1ccccc1)c1c(Cl)cccc1Cl)N1CCCC1 (stereo not drawn) [Example 6, N-(2,6-Dichlorophenyl)-beta-[(2,2-dimethylpropoxy)methyl]-N-(phenylmethyl)-1-pyrrolidineethanamine Hydrochloride (1:1)]	-33 mm of Hg	7.3	–	–
Cc1cccc(C)c1N(Cc1ccccc1)CC(COCC(C)(C)C)N1CCCC1.Cl (stereo not drawn) [Example 8b, N-(2,6-Dimethylphenyl)-beta-[(2,2-dimethylpropoxy)methyl]-N-(phenylmethyl)-1-pyrrolidineethanamine Hydrochloride]	-21 mm of Hg	2.8	–	–
